From US20220175931A1, “OSMOTIC PRESSURE REGULATOR FOR PERITONEAL DIALYSATE CONTAINING D-ALLOSE AND/OR D-ALLULOSE” (NATIONAL UNIVERSITY CORPORATION KAGAWA UNIVERSITY, priority 2019, published 2022)
In brackets after ≈: the same amount, converted by molar mass. Entries after “also recorded” stand apart in the source; their conditions may differ. Read-outs that look alike come from different tables or passages of the source.

What was measured:
[1] = test system: Corynebacterium; experiment: MIC test, agar plate dilution method; type: cell-based, Corynebacterium striatum
Experimental: (§1) In accordance with the agar plate dilution method of the Japanese Society of Chemotherapy (1981), the minimum inhibitory concentration of a sample was determined.
(§2) Agar plates containing a sample at predetermined concentrations were smeared with a test bacterial suspension and were incubated, and then the minimum concentration at which bacterial growth was inhibited was determined as the minimum inhibitory concentration.
(§3) A 10-fold diluted solution of a sample was prepared with purified water and was added to an agar medium at a 1/10 volume.
(§4) From the upper limit concentration, the concentration was determined by serial 2-fold dilution to about 100 μg/ml.
(§5) (1) A 70% solution was prepared (14 g was diluted in a 20-ml measuring flask).
(§6) (2) The 70% solution was diluted by 2-fold dilution. Seven to eight steps.
(§7) (3) A 1/9 volume of each solution was added to an agar medium, and the mixture was poured in a petri dish and solidified (the sample concentration was 7% or more in the agar).
(§8) A liquid culture medium containing bacteria was incubated for 16 to 20 hours, and a prepared culture medium having a bacterial concentration of about 10^6/ml was used.

[2] = test system: Enterococci; experiment: MIC test, agar plate dilution method; type: cell-based, Enterococcus faecalis
Experimental: as §1, §2, §3, §4, §5, §6, §7, §8

[3] = test system: E. coli; experiment: MIC test, agar plate dilution method; type: cell-based, Escherichia coli
Experimental: as §1, §2, §3, §4, §5, §6, §7, §8

[4] = test system: Staphylococcus aureus; experiment: MIC test, agar plate dilution method; type: cell-based, Staphylococcus aureus subsp. (MSSA)
Experimental: as §1, §2, §3, §4, §5, §6, §7, §8

[5] = test system: MRSA; experiment: MIC test, agar plate dilution method; type: cell-based, Staphylococcus aureus (MRSA)
Experimental: as §1, §2, §3, §4, §5, §6, §7, §8

[6] = test system: Pseudomonas aeruginosa; experiment: MIC test, agar plate dilution method; type: cell-based
Experimental: as §1, §2, §3, §4, §5, §6, §7, §8

[7] = test system: Staphylococcus epidermidis; experiment: MIC test, agar plate dilution method; type: cell-based
Experimental: as §1, §2, §3, §4, §5, §6, §7, §8

[8] = test system: male SD rats; experiment: Blood glucose level after intraperitoneal administration of D-allulose dialysate, normal rats, Test Example 3; type: in vivo, rat; details: PDF-based, vs control group
Text: The number of dialysis patients due to end-stage renal failure has been increasing; diabetic nephropathy is the main basic disease of end-stage renal failure; peritoneal dialysis patients can work during the day and has high QOL; peritoneal dialysis uses an osmotic pressure difference by glucose to remove water and toxins; and glucose in a peritoneal dialysate is absorbed through the peritoneum into the body to increase the blood glucose level, and this may worsen prognosis of a dialysis patient with diabetes. Considering the above circumstances, Kagawa University is only the organization capable of producing all rare sugars in the world and can research the rare sugar optimum for an intended dialysate.
The test example of D-allulose includes a substitution example and an addition example. In the substitution example, D-allose in FIG. 7 was substituted with D-allulose.
To male SD rats, a control solution as a solution in which a peritoneal dialysis fluid (PDF) was mixed with glucose, a 10% substitution solution as a solution in which 10% (by weight) of glucose to be mixed was substituted with D-allulose, or a 10% load solution as a solution in which D-allulose was added to the control solution in an amount corresponding to 10% by weight of glucose was intraperitoneally administered in the same volume, and blood glucose levels were determined over time.

[9] = test system: test bacteria; experiment: MIC test, summary statements for the test bacteria as a whole; type: cell-based
Experimental: as §1, §2
Drug concentration 128 μg/ml grown bacteria A+ B− C−
Drug concentration 64 μg/ml grown bacteria A+ B+ C−
Drug concentration 32 μg/ml grown bacteria A+ B+ C+

[10] = test system: normal rats (SD rats); experiment: Blood glucose level after intraperitoneal administration of peritoneal dialysate, normal rat models, Test Example 1; type: in vivo
Experimental: As shown in the protocol in FIG. 1, normal rats (6-week-old male SD rats, a weight of 155 to 170 g/body) were fasted for 24 hours, then the weights and fasting blood glucose levels were determined, and the rats were randomly separated into four groups.
As the administration solutions, a solution containing only glucose at a concentration of 4%, a solution having a sugar concentration of 4% in which D-allose was contained at 5% and glucose was contained at 95%, a solution having a sugar concentration of 4% in which D-allose was contained at 10% and glucose was contained at 90%, and a solution having a sugar concentration of 4% in which D-allose was contained at 25% were prepared, and each osmotic pressure of the four solutions was determined.
(§9) For the normal rats, blood samples were collected from the tail veins, and the blood glucose (blood sugar) levels were determined by using a commercially available blood glucose meter.
The results were subjected to Tukey-Kramer test by using an analysis software, JMP, and no significant difference was observed.

[11] = test system: diabetic model rats (SDT fatty rats); experiment: Blood glucose level after intraperitoneal administration of peritoneal dialysate, diabetic model rats, Test Example 1; type: in vivo, rat
Experimental: (§10) As shown in the protocol in FIG. 4, 12- to 13-week-old male SDT fatty rats (a weight of 360 to 460 g) as diabetic model rats were fasted for 24 hours, then the weights and fasting blood glucose levels were determined, and the rats were randomly separated into two groups. As the administration solutions, a solution containing only glucose at a concentration of 4%, a solution having a sugar concentration of 4% in which D-allose was contained at 10% and glucose was contained at 90% were prepared, and each osmotic pressure of the two solutions was determined.
(§11) The diabetic model rats had more weights and higher fasting blood glucose levels than those of the normal rats. Blood samples were difficult to collect from the tails of the diabetic rats and thus were collected from the jugular vein, and blood glucose levels were determined by using the same blood glucose meter as above. The model rats had diabetes, and thus the blood glucose level increase was slow as compared with the normal rats.

[12] = test system: normal rats (SD rats); experiment: Blood glucose level after intraperitoneal administration of PDF-based dialysate, normal rat models, Test Example 2; type: in vivo; details: PDF-based solutions
Experimental: Next, a peritoneal dialysis fluid (PDF) was prepared, solutions containing glucose in a constant total amount of (0.432 g) were prepared, and D-allose was added to the solution at a predetermined ratio to give the following two peritoneal dialysates having a sugar concentration of 4% by weight and an osmotic pressure of 500 mOsm/L.
as §10, with “7, normal rats (6-week-old” for “4, 12- to 13-week-old”, “SD rats, a” for “SDT fatty rats (a”, “155” for “360”, “175 g/body)” for “460 g) as diabetic model rats”, “4% and” for “4%,”, “pressure” for “pressure of the two solutions”
as §9
FIG. 8 show the test result of blood glucose level of the two groups of a group of the solution containing only glucose at a concentration of 4% and a group of the solution having a sugar concentration of 4% in which D-allose was contained at 10% and glucose was contained at 90%.

[13] = test system: diabetic model rats (SDT fatty rats); experiment: Blood glucose level after intraperitoneal administration of PDF-based dialysate, diabetic model rats, Test Example 2; type: in vivo, rat; details: PDF-based solutions
Experimental: As shown in the protocol in FIG. 9, 35- to 42-week-old male SDT fatty rats (a weight of 380 to 490 g) as diabetic model rats were fasted for 24 hours, then the weights and fasting blood glucose levels were determined, and the rats were randomly separated into two groups. As the administration solutions, the original solution was changed to PDF, and a solution containing only glucose as the sugar at a concentration of 4%, a solution having a sugar concentration of 4% in which D-allose was contained at 10% and glucose was contained at 90% were prepared, and each osmotic pressure of the two solutions was determined.
FIG. 10 show the test result of blood glucose level of the two groups of a group of the solution containing only glucose at a concentration of 4% and a group of the solution having a sugar concentration of 4% in which D-allose was contained at 10% and glucose was contained at 90%.
as §11, with “vein, and the blood glucose” for “vein, and blood glucose”

[14] = Enterococcus faecalis, read-out: MIC
[15] = Escherichia coli, read-out: MIC
[16] = Staphylococcus aureus, read-out: MIC
[17] = summary of results, drug concentration 128, 64, 32 μg/ml, bacterium not named
[18] = intraperitoneal, 0, 2, 4, and 6 hours

Structure (SMILES)	MIC ([1]; read-out: MIC) [mg/mL]	MIC [2, 14] [mg/mL]	MIC [3, 15] [mg/mL]	MIC ([4]; read-out: MIC) [mg/mL]	MIC [5, 16] [mg/mL]	MIC ([6]; read-out: MIC) [mg/mL]	MIC ([7]; read-out: MIC) [mg/mL]	MIC [1] [mg/mL]	MIC [2] [mg/mL]	MIC [3] [mg/mL]	MIC [4] [mg/mL]	MIC [5] [mg/mL]	MIC [6] [mg/mL]	MIC [7] [mg/mL]	MIC [9, 17] [mg/mL]	further results
O=C[C@H](O)[C@@H](O)[C@H](O)[C@H](O)CO [Sample 1), D-glucose]	> 70	> 70	> 70	> 70	> 70	> 70	> 70	–	–	–	–	–	–	–	–	–
O=C(CO)[C@@H](O)[C@H](O)[C@H](O)CO [Sample 2), D-Fructose]	> 70	> 70	> 70	> 70	> 70	> 70	> 70	–	–	–	–	–	–	–	–	–
O=C(CO)[C@H](O)[C@H](O)[C@H](O)CO [Sample 3), D-allulose]	–	–	–	–	–	–	–	>70	>70	>70	>70	>70	>70	>70	> 0.128	blood glucose level increase (BS) [8]: significantly suppressed
O=C(CO)[C@@H](O)[C@@H](O)[C@@H](O)CO [Sample 4), L-allulose]	–	–	–	–	–	–	–	>70	>70	>70	>70	>70	>70	>70	0.128 (≈ 0.71 mM)	–
O=C[C@H](O)[C@H](O)[C@H](O)[C@H](O)CO [Sample 5), D-allose]	> 70	> 70	> 70	> 70	> 70	> 70	70 (≈ 389 mM)	–	–	–	–	–	–	–	–	AUC of blood glucose level ([10]; Tukey-Kramer test): significant declining trend; blood glucose level increase (time course) ([10]; fasted 24 hours, vs glucose-only solution): increase suppressive effect with a significant difference; also recorded: suppressed; blood glucose level increase [11, 18]: suppressed; AUC of blood glucose level ([11]; intraperitoneal, t-test): suppressive effect on the blood glucose level increase with a significant difference; blood glucose level increase [12]: suppressed; blood glucose level increase [13, 18]: suppressed; AUC of blood glucose level ([13]; t-test): suppressive effect on the blood glucose level increase with a significant difference; MIC [9]: 0.064 mg/mL (≈ 0.355 mM)
